Results taken from article PMC8196871, “Molecular Imaging and Preclinical Studies of Radiolabeled Long-Term RGD Peptides in U-87 MG Tumor-Bearing Mice” (International Journal of Molecular Sciences, 2021).
One block for each compound: values may come before it.

Tests used:
tumor = system: tumor; design: method as in PMID 25621196; details: cited from earlier work
U-87 MG cells = format: binding, human; details: 4 h
Description: As the concentration of unlabeled DOTA-EB-cRGDfK or DOTA-cRGDfK increased, the binding ratio of ^111In-DOTA-EB-cRGDfK decreased, indicating the presence of specific binding affinity (Figure 2C).
U-87 MG cells were seeded into 24-well plates at a density of 1 × 10^5 cells per well and incubated overnight. Different concentrations ranging from 0.01 nM to 5000 nM of DOTA-EB-cRGDfK or DOTA-cRGDfK were added to the wells. U-87 MG cells were then incubated with 10 nM ^111In-DOTA-EB-cRGDfK for 4 h at 37 °C. Cells were washed once with 0.5 mL PBS and were removed from each well by 0.25% trypsin-EDTA (Gibco, Gaithersburg, MD, USA). The cell suspensions were collected and measured by using a PerkinElmer 2480 Automatic Gamma Counter (PerkinElmer, Waltham, MA, USA). Binding results were expressed as a percent of total counts, and IC50 values were calculated using SigmaPlot 12.5 (Systat Software, Inc., San Jose, CA, USA).

[1] = NanoSPECT/CT imaging with image quantification; format: in vivo; details: female, NOD/SCID, mouse, tumor, iv, 2.5 ug, total radioactivity; 0.5 h after tail-vein injection (about 18.5 MBq, 2.5 μg); U-87 MG xenografts in mice; nanoSPECT/CT ROI
Description: Figure 3 presented nanoSPECT/CT images of U-87 MG xenografts in mice administered with different radiolabeled peptides. […] Comparing with ^111In-DOTA-EB-cRGDfK, the highest tumor uptake of ^111In-DOTA-cRGDfK was 2.0 ± 0.5% ID/g at 0.5 h. […] The ratios of tumor to muscle and tumor to liver were 1.8 ± 0.7 and 0.5 ± 0.1 at 0.5 h, respectively. The highest tumor uptake of ^111In-DOTA-EB was 10.3 ± 4.4% ID/g at 24 h, and it slightly dropped to 9.97 ± 4.37% ID/g at 72 h.
The human glioblastoma cell line, U-87 MG (stock number: BCRC 60360), was obtained from Bioresource Collection and Research Center. Cells were grown in Minimum Essential Medium (MEM; Gibco, Grand Island, NY, USA) supplemented with 10% (v/v) fetal bovine serum (FBS; Gibco, Gaithersburg, MD, USA) and 1% antibiotic antimycotic solution (Sigma-Aldrich, St. Louis, MO, USA) at 37 °C under 5% CO2 incubation. Female non-obese diabetic, severe combined immunodeficiency (NOD/SCID) mice were obtained from BioLASCO Taiwan Co., Ltd. The 6-week-old mice were housed in a 12 h light cycle at 22 °C, with food and water provided ad libitum. […]
The procedure for nanoSPECT/CT imaging has been previously described. […] The image quantification of the region of interest (ROI) was acquired by PMOD v. […]

[2] = mouse, in vivo, iv
Description: Blood samples (10 μL) were collected by heart puncture under 2% isoflurane anesthesia at 0.083, 0.5, 2, 4, 24, 48, 72, 96, and 168 h. The radioactivity of blood samples was measured by PerkinElmer 2480 gamma counter and expressed as the percentage injected dose per gram (% ID/g). Data was used to determine the pharmacokinetic parameters by noncompartmental analysis (NCA) and the analysis software was WinNonlin 7.0 (Pharsight Corporation, Mountain View, CA, USA). Parameters, including terminal half-life (T1/2λz), maximum concentration (Cmax), total body clearance (Cl), area under curve (AUC), and mean residence time (MRT) were determined. Pharmacokinetic parameters associated with the terminal phase were calculated using the best-fit method to estimate the terminal half-life.

Compound: N[C@@H](Cc1ccc(B(O)O)cc1[18F])C(=O)O [^18F-BPA]
Tumor uptake (tumor): 1.44 ± 0.44 % ID/g

IC50 (U-87 MG cells): 35.2 nM
Compound: N=C(N)NCCC[C@@H]1NC(=O)[C@H](CCCCNC(=O)CN2CCN(CC(=O)O)CCN(CC(=O)O)CCN(CC(=O)O)CC2)NC(=O)[C@@H](Cc2ccccc2)NC(=O)[C@H](CC(=O)O)NC(=O)CNC1=O [DOTA-cRGDfK]

tissue uptake at 0.5 h [1]: 2 ± 0.5 %ID/g
Cl (total body clearance) [2]: 12.9 mL/h
Maximum concentration (Cmax) in blood [2]: 3.74 % ID/g
T1/2λz (terminal half-life) [2]: 17.2 h
Compound: N=C(N)NCCC[C@@H]1NC(=O)[C@H](CCCCNC(=O)CN2CCN(CC(=O)O)CCN(CC(=O)O)CCN(CC(=O)O)CC2)NC(=O)[C@@H](Cc2ccccc2)NC(=O)[C@H](CC(=O)O)NC(=O)CNC1=O [^111In-DOTA-cRGDfK, metal not drawn]
